In patent US12083168B2, “Treatment and detection of inherited neuropathies and associated disorders” (University of Miami, priority 2019, dated 2024):

Experiments:
[1] = test system: patient fibroblasts lacking functional SORD; test: Intracellular sorbitol level in patient fibroblasts (UPLC-MS/MS, normalised to protein content); type: cell-based, human; settings: 72 hrs, Epalrestat 100 μM, Ranirestat 10 μM, vs DMSO
Protocol: Asynchronous cell cultures were grown to approximately 80% confluency and treated with epalrestat (100 μM), ranirestat (10 μM) or DMSO for 72 hours. Media containing the drugs or DMSO were changed every 24 hours.
Sorbitol determination in human fibroblast lysates was performed in ultra-performance liquid chromatography-tandem mass spectrometry (UPLC-MS/MS) (Waters Acquity UPLC & TQD mass spectrometer—Waters, Milford, MA, USA). […] Lysate samples underwent protein precipitation with Acetonitrile (1:5), ten-time dilution with Acetonitrile-water (50/50) and clean up on Oasis HLB cartridges (10 mg/1 ml), before injection in UPLC (3 μL). UPLC conditions: column, BEH Amide 1.7 μm (2.1×100 mm) at 88° C., eluent A, Acetonitrile 90%-water 5%-Isopropanol 5%, eluent B, Acetonitrile 80%-water 20%, gradient elution 0 min., 100% A, 3.6 min. 100% B, flow rate, 0.45 ml/min. The retention time of sorbitol was 2.7 min.
The effect of two commercially available aldose reductase inhibitors (ARI), Epalrestat and Ranirestat, were tested on intracellular sorbitol accumulation in patient fibroblasts lacking functional SORD. Patient and control fibroblasts were grown for 72 hrs in the presence or absence of Epalrestat (100 μM) or Ranirestat (10 μM) and intracellular sorbitol levels were measured thereafter.

[2] = test system: Sodh2MB01265/MB01265 Drosophila; test: Sorbitol level in fly brain/head homogenates (UPLC); type: in vivo, Drosophila melanogaster; settings: Sodh2MB01265/MB01265 flies at 10 DAE; fed from 2 DAE, 80 μM / 80 μg/ml in food
Protocol: (FIG. 4B) Sorbitol level as measured by UPLC from brain/head homogenates and normalised to protein concentration from wild-type (yw, empty circle dots), Sodh2^MB01265/MB01265 (full circle dots) and neuron-specific knock-down of Sodh1 and Sodh1 by RNAi (square dots) Drosophilae at 10 days after eggs enclosure. Sodh2 Mimic and Sodh1 and Soh2 RNAi Drosophilae were fed with either 80 μM Epalrestat, 80 μM Ranirestat or DMSO. The graphs show the mean±s.d. A two-tailed t-test was performed to compare sorbitol level. Statistical significance is indicated as *, ** or *** if P-value <0.05, <0.01 or <0.001, respectively, unless otherwise specified.
Lysate samples underwent protein precipitation with Acetonitrile (1:5), ten-time dilution with Acetonitrile-water (50/50) and clean up on Oasis HLB cartridges (10 mg/1 ml), before injection in UPLC (3 μL). UPLC conditions: column, BEH Amide 1.7 μm (2.1×100 mm) at 88° C., eluent A, Acetonitrile 90%-water 5%-Isopropanol 5%, eluent B, Acetonitrile 80%-water 20%, gradient elution 0 min., 100% A, 3.6 min. 100% B, flow rate, 0.45 ml/min. The retention time of sorbitol was 2.7 min. MS/MS conditions: interface, Electrospray interface in negative ion mode, Multiple Reaction Monitoring acquisition, m/z 180.9→88.9 (CV 24, CE 15).
Unless specified, all flies were kept on cornmeal-molasses-yeast medium at 25° C., 65% humidity, with 12 h light/12 h dark cycles. […]

[3] = test system: Sodh2MB01265/MB01265 flies; test: Locomotor activity (negative geotaxis assay), Sodh2 mutant flies; type: in vivo, Drosophila melanogaster; settings: 80 μM in food, vs yw control flies
Protocol: […] Equal amount of DMSO was mixed into the fly food as control. The vials were dried at room temperature for 12 h before feeding.
For lifespan assay, 100 newly enclosed female flies of each group were collected and placed in vials of 20 individuals. Flies were transferred into new vials every 2 days and the number of dead flies was counted. Survival data was plotted using Kaplan-Meier plot and compared between groups using log-rank test. For negative geotaxis behavior assay, 10 age-matched female flies were placed in a vial marked with a black line drawn horizontally 8 cm above the bottom. Flies were given 60 min to fully recover from CO2 anesthesia, and were gently tapped onto the bottom and given 10 s to climb. Flies that crossed the 8 cm line were counted. For each vial, this assay was repeated 10 times, and 10 independent vials of each group (a total 100 flies per group) were tested. To minimize observer-expectancy bias, this assay was performed with the examiner masked to the group assignment.

[4] = test system: flies with neuronal specific knockdown of both Sodh1 and Sodh2; test: Locomotor activity (negative geotaxis assay), Sodh1 and Sodh2 double knockdown flies; type: in vivo, Drosophila melanogaster; settings: neuronal specific knockdown of Sodh1 and Sodh2, 80 μM in food, vs yw control flies
Protocol: FIG. 7. Treatment with aldose reductase inhibitors Epalrestat and Ranirestat restore locomotor function in Sodh1 and Sodh2 double knockdown flies. Locomotor activity of control flies (yw) feeding with DMSO (dots, first data point from the left for each DAE point indicated), or flies with neuronal specific knockdown of Sodh1 and Sodh2 feeding with DMSO (squares, second data point from the left for each DAE point indicated), 80 μM Epalrestat (squares, third data point from the left for each DAE point indicated), or 80 μM Ranirestat (squares, forth data point from the left for each DAE point indicated). n=10 in each group. Data are presented as mean±s.d. Statistical analysis was performed using Two-Way ANOVA followed by post-hoc Tukey's multiple comparison test. ***P<0.001, ****P<0.0001. […] Equal amount of DMSO was mixed into the fly food as control. The vials were dried at room temperature for 12 h before feeding. For lifespan assay, 100 newly enclosed female flies of each group were collected and placed in vials of 20 individuals. Flies were transferred into new vials every 2 days and the number of dead flies was counted. Survival data was plotted using Kaplan-Meier plot and compared between groups using log-rank test. […] Flies that crossed the 8 cm line were counted. […]

[5] = test system: Sodh2MB01265/MB01265 mutant flies; test: Age-dependent synaptic degeneration in the lamina (vacuoles, BRP immunostaining, confocal microscopy); type: in vivo, Drosophila melanogaster
Protocol: FIGS. 4A-G. Treatment with aldose reductase inhibitors Epalrestat and Ranirestat decrease sorbitol level and restore function. (FIG. 4A) Intracellular sorbitol level as measured by UPLC and normalised to protein content in fibroblasts from healthy controls (n=5, circle dots) and patients carrying biallelic nonsense mutations in SORD (n=5, square dots) after three days of treatment with Epalrestat 100 μM, Ranirestat 10 μM or DMSO. (FIG. 4B) Sorbitol level as measured by UPLC from brain/head homogenates and normalised to protein concentration from wild-type (yw, empty circle dots), Sodh2^MB01265/MB01265 (full circle dots) and neuron-specific knock-down of Sodh1 and […] (square dots) Drosophilae at 10 days after eggs enclosure. Sodh2 Mimic and Sodh1 and Soh2 RNAi Drosophilae were fed with either 80 μM Epalrestat, 80 μM Ranirestat or DMSO. The graphs show the mean±s.d. A two-tailed t-test was performed to compare sorbitol level. Statistical significance is indicated as *, ** or *** if P-value <0.05, <0.01 or <0.001, respectively, unless otherwise specified. All experiments were repeated independently twice with similar results. (FIG. 4C) Locomotor activity of control flies (yw) feeding with DMSO, Sodh2^MB01265/MB01265 flies feeding with DMSO, 80 μM Epalrestat, or 80 μM Ranirestat (n=10 in each group). Data are presented as mean±s.d. Statistical analysis was performed using Two-Way ANOVA followed by post-hoc Tukey's multiple comparison test. *P<0.05, ***P<0.001 (FIGS. 4D-4F) Laminae of Sodh2^MB01265/MB01265 homozygous flies at 10 DAE and 40 DAE fed with DMSO (FIG. 4D), 80 μM Epalrestat (FIG. 4E), or 80 μM Ranirestat (FIG. 4F). Arrowheads indicate the lamina vacuoles. Boxes indicate higher magnification areas of the lamina. The intensity of BRP is indicated. […] (FIG. 4G) Quantification of the vacuole number, size, and BRP intensity of (FIGS. 4D-4F). n=3. […]
Brain dissection and staining were carried out as previously described (Brazill et al., J Vis Exp. 2018; (138)). […] Images were processed and analyzed using FluoView 10-ASW (Olympus).

[6] = test system: aldose reductase (AR) (AKR1B1 gene); test: Knock-down of aldose reductase by antisense oligonucleotide, Western blot normalized to β-tubulin; type: cell-based, Homo sapiens; settings: SORD patient fibroblast and control fibroblasts; scrambled ASO (AR-S 1A) as control
Protocol: FIGS. 15A-15D. […] This was carried out in a SORD patient fibroblast and control fibroblasts and normalized to β-tubulin and measured via Western blot (FIGS. 15C-15D).
Fibroblasts were lysed in RIPA buffer (ThermoFisher) containing protease inhibitor (Roche) and sonicated for 5 minutes with the Bioruptor sonication device (Diagenode). Cell lysates were centrifuged at 13,000×g for 10 minutes at 4° C., and the supernatant was collected for protein quantification (Pierce BCA Protein Assay Kit). 30 μg of protein sample was mixed with Bolt LDS Sample Buffer and Sample Reducing Agent (ThermoFisher) and heated at 90° C. for 5 min. Samples were loaded on Bolt 4-12% Bis-Tris Plus mini-gel followed by transfer into a nitrocellulose membrane (Bio-Rad). Membrane was blocked with 5% non-fat milk and incubated with anti-SORD (ab189248, Abcam) antibody for 2 hours, washed with TBS containing 0.01% Tween 20 (Bio-Rad) and incubated with a secondary anti-rabbit antibody (Cell Signaling). Membrane was subsequently incubated with GAPDH primary antibody (Santa Cruz) and secondary anti-mouse antibody (Cell Signaling). Chemoluminescence detection was performed with the SuperSignal West Pico PLUS Chemiluminescent Substrate and imaged with the FluorChem E (ProteinSimple).

[7] = Sodh2MB01265/MB01265 flies, at both 10 and 40 DAE, 80 μM in food

Compound | intracellular sorbitol level [1] | sorbitol level in fly heads [2] | locomotor activity [3] | locomotor activity [4] | localization of synaptic cytomatrix protein BRP [5, 7] | number of lamina vacuoles [5, 7] | age-dependent synaptic defects ([5]; Sodh2MB01265/MB01265 mutant flies, drug feeding) | aldose reductase protein level (knock-down) [6]
O=C1C[C@@]2(C(=O)N1)C(=O)N(Cc1ccc(Br)cc1F)C(=O)c1cccn12 [Ranirestat] | significant reduction of sorbitol to a level comparable to controls | significant reduction of sorbitol level | rescued to the levels of yw control flies | rescued to the levels of yw control flies | restored the localization of synaptic cytomatrix protein BRP | reduced the number of vacuoles | restored the age-dependent synaptic defects | –
AR 1A: antisense oligonucleotide (ASO) targeting aldose reductase (AKR1B1), SEQ ID NO: 22, GTTTAAGATCATCTCCACCT, modified backbone (modified backbone, type not given here) | – | – | – | – | – | – | – | Significant knock-down
